Laboratory results taken from patent US12410155B2, “Salt form and crystal form of tetrahydrocyclohepta indazole compound” (Zhejiang Yangli Pharmaceutical Technology Co., Ltd., priority 2021, dated 2025).
Where two headings read alike, the source gives them in different places.

Assays:
[1] = tested on: MCF-7 ESR1-Y537S; assay: Proliferation inhibition assay, MCF-7 ESR1-Y537S mutant cell line; assay type: cell-based; details: Homo sapiens, MCF7, 168 h, 7 days
Procedure: The tumor cell lines were cultured in an incubator at 37° C. with 5% CO2. Regular passaging was performed, and cells in the logarithmic growth phase were selected for plating.
• 1) Cells were stained with trypan blue and viable cells were counted. • 2) Cells were washed once with PBS and resuspended in RPMI 1640+10% FBS medium without phenol red. The concentration was adjusted to an appropriate one. • 3) 135 μL of the cell suspension per well was added to a culture plate, and cell-free culture medium was added to the blank control well. • 4) The plates were incubated overnight at 37° C. with 5% CO2 and 100% relative humidity. 3. Preparation of 10× Compound Working Solution and Treatment of Cells • 1) Preparation of 10× compound working solution: 199 μL of cell culture medium was added to V-bottom 96-well plates. From a 2000× compound storage plate, 1 μL of the compound was added to the 96-well plate containing cell culture medium. 1 μL of DMSO was added to vehicle control and blank control. […] The final concentration of DMSO was 0.05%. • 3) The 96-well cell plate was returned to the incubator for further culture, and cell viability was assessed after 7 days. […]
The inhibition rate (IR) of the compound was calculated using the following formula:
[formula] Inhibition rates for different concentrations of the compound were calculated in Excel. […]

[2] = tested on: human breast cancer MCF-7 cell subcutaneous xenograft tumor; assay type: in vivo; details: PO, QD; for T/C (%) / TGI (%) / Tumor volume (mm^3) (Day 21): Day 21; for Tumor volume (mm^3) (Day 21): listed as compound (I)
Procedure: (1) In Vivo Pharmacodynamic Study of Breast Cancer MCF-7 Cell Subcutaneous Xenograft Tumor BALB/c Nude Mouse Model
Objective: This study aimed to evaluate the in vivo efficacy of the crystal form C of the compound of formula (I) using a human breast cancer MCF-7 cell subcutaneous xenograft tumor model in nude mice.
Routine digestion with trypsin-EDTA (Gibco) was performed twice a week for passaging.
Cell inoculation: Estrogen pellets (0.36 mg/pellet; IRA) were subcutaneously inoculated into the left dorsum of each mouse. Three days later, 0.2 mL (1×10^7 cells) of MCF-7 cells (mixed with Matrigel; CORNING, volume ratio 1:1) were subcutaneously inoculated into the right dorsum of each mouse. When the average tumor volume reached 188 mm^3, the mice were grouped and the administration of compounds began.
An appropriate amount of the compound of formula (I) was weighed and prepared into 0.1, 0.3, 1, and 3 mg/mL solutions. […] Fulvestrant was used as the commercially available injection Faslodex.
The antitumor efficacy of the compounds was evaluated using Tumor Growth Inhibition (TGI, %) and relative tumor proliferation rate (T/C, %).
The Q value of combined medication index was calculated using the Jin formula. The criteria for judgment were as follows: a Q value of 0.85 to 1.15 indicated […] (+); a Q value>1.15 to 2.0 indicated enhancement (++); a Q value<0.85 to 0.55 indicated antagonism (−); and a Q value<0.55 indicated significant antagonism (−−). The formula was Q=Ea+b/(Ea+Eb−Ea×Eb), where Ea+b was the tumor inhibition rate of the combined medication group, and Ea and Eb were the tumor inhibition rates of the single medication groups, respectively.
Inter-group comparisons were analyzed using one-way ANOVA. […] A p value<0.05 was considered to indicate a significant difference.

**Q.** How did the IC50 ([1]; read-out: Relative IC50) turn out when `FCCCN1CC[C@H](Nc2cnc(C3=C(CC(F)(F)F)CCCc4c3ccc3[nH]nc(F)c43)cn2)C1` [Compound of formula (I)] was run?
**A.** The IC50 was 0.0112 µM.

**Q.** What about the IC90 ([1]; read-out: Relative IC90) of the same molecule?
**A.** The IC90 was 0.101 µM.

**Q.** What about the “T/C (%)” value ([2]; 1 mg/kg) of the same molecule?
**A.** The value was 27.2%.

**Q.** What about the “TGI (%)” value ([2]; 1 mg/kg) of the same molecule?
**A.** The value was 85.3%.

**Q.** And the “Tumor volume (mm^3) (Day 21)” value ([2]; 1 mg/kg)?
**A.** The value was 340 mm^3.

**Q.** What about the “T/C (%)” value ([2]; 3 mg/kg) of the same molecule?
**A.** Its value is 14.8%.

**Q.** And the “TGI (%)” value ([2]; 3 mg/kg)?
**A.** Its value is 100.9%.

**Q.** And the “Tumor volume (mm^3) (Day 21)” value ([2]; 3 mg/kg)?
**A.** Its value is 179 mm^3.

**Q.** And the ORR % ([2]; 10 mg/kg)?
**A.** The ORR % was 25%.

**Q.** And the “T/C (%)” value ([2]; 10 mg/kg)?
**A.** Its value is 11.3%.

**Q.** And the “TGI (%)” value ([2]; 10 mg/kg)?
**A.** Its value is 104.6%.

**Q.** And the “Tumor volume (mm^3) (Day 21)” value ([2]; 10 mg/kg)?
**A.** Its value is 140 mm^3.

**Q.** What about the ORR % ([2]; 30 mg/kg) of the same molecule?
**A.** Its ORR % is 25%.

**Q.** What about the “T/C (%)” value ([2]; 30 mg/kg) of the same molecule?
**A.** Its value is 9.7%.

**Q.** And the “TGI (%)” value ([2]; 30 mg/kg)?
**A.** Its value is 106.5%.

**Q.** And the “Tumor volume (mm^3) (Day 21)” value ([2]; 30 mg/kg)?
**A.** Its value is 121 mm^3.
